From PubChem BioAssay AID1259407 (Chemical Carcinogenesis Research Information System (CCRIS), 2018) come the findings set out here.

Activity calls are given as the source filed them. No rule for the calls is given here.

The data set deals with CCRIS mutagenicity, Ames/micronucleus/aberration tests. In words: CCRIS mutagenicity studies.
[1] abbreviates: Test System: AMES SALMONELLA TYPHIMURIUM, Strain/Indicator: TA98, Metabolic Activation: NONE, Method: PREINCUBATION
Where [2] appears, read: Test System: AMES SALMONELLA TYPHIMURIUM, Strain/Indicator: TA98, Metabolic Activation: NONE, Method: STANDARD PLATE.
Where [3] appears, read: Test System: AMES SALMONELLA TYPHIMURIUM, Strain/Indicator: TA98, Metabolic Activation: RAT, LIVER, S-9, AROCLOR 1254, Method: STANDARD PLATE.
The mark [4] stands for this setting: Test System: AMES SALMONELLA TYPHIMURIUM, Strain/Indicator: TA100, Metabolic Activation: NONE, Method: PREINCUBATION
The mark [5] stands for this setting: Test System: AMES SALMONELLA TYPHIMURIUM, Strain/Indicator: TA100, Metabolic Activation: NONE, Method: STANDARD PLATE.
[6] abbreviates: Test System: AMES SALMONELLA TYPHIMURIUM, Strain/Indicator: TA100, Metabolic Activation: RAT, LIVER, S-9, AROCLOR 1254, Method: STANDARD PLATE.
Setting [7] is: Test System: AMES SALMONELLA TYPHIMURIUM, Strain/Indicator: TA1535, Metabolic Activation: NONE, Method: PREINCUBATION
[8] abbreviates: Test System: AMES SALMONELLA TYPHIMURIUM, Strain/Indicator: TA1537, Metabolic Activation: NONE, Method: PREINCUBATION

Take `CN(C)c1ccc([C@H]2C[C@]3(C)[C@@H](CC[C@]3(O)CCCO)[C@@H]3CCC4=CC(=O)CCC4=C32)cc1`: the mutagenic call (End Point: IN VITRO CHROMOSOMAL ABERRATIONS, Test System: HUMAN PERIPHERAL LYMPHOCYTES, Metabolic Activation: NONE) is “inactive; negative”; the mutagenic call (End Point: IN VITRO CHROMOSOMAL ABERRATIONS, Test System: HUMAN PERIPHERAL LYMPHOCYTES, Metabolic Activation: RAT, LIVER, S-9, AROCLOR 1254) was “inactive; negative”; the mutagenic call (End Point: IN VIVO MICRONUCLEUS, Test System: BONE MARROW POLYCHROMATIC ERYTHROCYTES, Species: MOUSE, Strain/Sex: NMRI/MALE, FEMALE, Route: INTRAGASTRIC) was “inactive; negative”; the mutagenic call under setting [1] is “inactive; negative”; the mutagenic call under setting [2] is “inactive; negative”; the mutagenic call (Test System: AMES SALMONELLA TYPHIMURIUM, Strain/Indicator: TA98, Metabolic Activation: RAT, LIVER, S-9, AROCLOR 1254, Method: PREINCUBATION) was “inactive; negative”. Also, the mutagenic call is “inactive; negative” under setting [3]; “inactive; negative” under setting [4]; “inactive; negative” under setting [5]; “inactive; negative” (Test System: AMES SALMONELLA TYPHIMURIUM, Strain/Indicator: TA100, Metabolic Activation: RAT, LIVER, S-9, AROCLOR 1254, Method: PREINCUBATION); “inactive; negative” under setting [6]; “inactive; negative” under setting [7]. Further, the mutagenic call reads like this: (Test System: AMES SALMONELLA TYPHIMURIUM, Strain/Indicator: TA1535, Metabolic Activation: NONE, Method: STANDARD PLATE) “inactive; negative”; (Test System: AMES SALMONELLA TYPHIMURIUM, Strain/Indicator: TA1535, Metabolic Activation: RAT, LIVER, S-9, AROCLOR 1254, Method: PREINCUBATION) “inactive; negative”; (Test System: AMES SALMONELLA TYPHIMURIUM, Strain/Indicator: TA1535, Metabolic Activation: RAT, LIVER, S-9, AROCLOR 1254, Method: STANDARD PLATE) “inactive; negative”; under setting [8], “inactive; negative”; (Test System: AMES SALMONELLA TYPHIMURIUM, Strain/Indicator: TA1537, Metabolic Activation: NONE, Method: STANDARD PLATE) “inactive; negative”; (Test System: AMES SALMONELLA TYPHIMURIUM, Strain/Indicator: TA1537, Metabolic Activation: RAT, LIVER, S-9, AROCLOR 1254, Method: PREINCUBATION) “inactive; negative”. Besides, the mutagenic call runs as follows: (Test System: AMES SALMONELLA TYPHIMURIUM, Strain/Indicator: TA1537, Metabolic Activation: RAT, LIVER, S-9, AROCLOR 1254, Method: STANDARD PLATE) “inactive; negative”; (Test System: AMES SALMONELLA TYPHIMURIUM, Strain/Indicator: TA1538, Metabolic Activation: NONE, Method: PREINCUBATION) “inactive; negative”; (Test System: AMES SALMONELLA TYPHIMURIUM, Strain/Indicator: TA1538, Metabolic Activation: NONE, Method: STANDARD PLATE) “inactive; negative”; (Test System: AMES SALMONELLA TYPHIMURIUM, Strain/Indicator: TA1538, Metabolic Activation: RAT, LIVER, S-9, AROCLOR 1254, Method: PREINCUBATION) “inactive; negative”; (Test System: AMES SALMONELLA TYPHIMURIUM, Strain/Indicator: TA1538, Metabolic Activation: RAT, LIVER, S-9, AROCLOR 1254, Method: STANDARD PLATE) “inactive; negative”; (Test System: CHINESE HAMSTER V-79, Strain/Indicator: V-79 (HGPRT)/6-THIOGUANINE, Metabolic Activation: NONE) “inactive; negative”. Under “Test System: CHINESE HAMSTER V-79, Strain/Indicator: V-79 (HGPRT)/6-THIOGUANINE, Metabolic Activation: RAT, LIVER, S-9, AROCLOR 1254”, the mutagenic call is “inactive; negative”.
Regarding `O=[N+]([O-])c1ccc2c(ccc3cc4c(ccc5ccccc54)cc32)c1`, the mutagenic call was “active; positive” (Test System: AMES SALMONELLA TYPHIMURIUM, Strain/Indicator: TA98(1,8-DNP6), Metabolic Activation: NONE); “active; positive” (Test System: AMES SALMONELLA TYPHIMURIUM, Strain/Indicator: TA98(1,8-DNP6), Metabolic Activation: RAT, LIVER, S-9, AROCLOR 1254); “active; positive” (Test System: AMES SALMONELLA TYPHIMURIUM, Strain/Indicator: TA98(NR), Metabolic Activation: NONE); “active; positive” (Test System: AMES SALMONELLA TYPHIMURIUM, Strain/Indicator: TA98(NR), Metabolic Activation: RAT, LIVER, S-9, AROCLOR 1254); “active; positive” (Test System: AMES SALMONELLA TYPHIMURIUM, Strain/Indicator: TA98, Metabolic Activation: NONE); “active; positive” (Test System: AMES SALMONELLA TYPHIMURIUM, Strain/Indicator: TA98, Metabolic Activation: RAT, LIVER, S-9, AROCLOR 1254). The mutagenic call is “inactive; negative” (Test System: AMES SALMONELLA TYPHIMURIUM, Strain/Indicator: TA100(NR), Metabolic Activation: NONE); “active; positive” (Test System: AMES SALMONELLA TYPHIMURIUM, Strain/Indicator: TA100(NR), Metabolic Activation: RAT, LIVER, S-9, AROCLOR 1254); “inactive; negative” (Test System: AMES SALMONELLA TYPHIMURIUM, Strain/Indicator: TA100, Metabolic Activation: NONE); “active; positive” (Test System: AMES SALMONELLA TYPHIMURIUM, Strain/Indicator: TA100, Metabolic Activation: RAT, LIVER, S-9, AROCLOR 1254); “inactive; negative” (Test System: AMES SALMONELLA TYPHIMURIUM, Strain/Indicator: TA104, Metabolic Activation: NONE); “active; positive” (Test System: AMES SALMONELLA TYPHIMURIUM, Strain/Indicator: TA104, Metabolic Activation: RAT, LIVER, S-9, AROCLOR 1254).
For the compound `N.N.O=C([O-])C1(C(=O)[O-])CCC1.[Pt+4]`, the mutagenic call runs as follows: under setting [1], “inactive; negative”; under setting [2], “inactive; negative”; under setting [3], “inactive; negative”; (Test System: AMES SALMONELLA TYPHIMURIUM, Strain/Indicator: TA98, Metabolic Activation: RAT, LIVER, S-9, PHENOBARBITAL AND 5,6-BENZOFLAVONE, Method: PREINCUBATION) “inactive; negative”; under setting [4], “inactive; negative”; under setting [5], “inactive; negative”. For the same compound, the mutagenic call runs as follows: under setting [6], “inactive; negative”; (Test System: AMES SALMONELLA TYPHIMURIUM, Strain/Indicator: TA100, Metabolic Activation: RAT, LIVER, S-9, PHENOBARBITAL AND 5,6-BENZOFLAVONE, Method: PREINCUBATION) “inactive; negative”; (Test System: AMES SALMONELLA TYPHIMURIUM, Strain/Indicator: TA102, Metabolic Activation: NONE, Method: STANDARD PLATE) “active; positive”; (Test System: AMES SALMONELLA TYPHIMURIUM, Strain/Indicator: TA102, Metabolic Activation: RAT, LIVER, S-9, AROCLOR 1254, Method: STANDARD PLATE) “active; positive”; under setting [7], “inactive; negative”; (Test System: AMES SALMONELLA TYPHIMURIUM, Strain/Indicator: TA1535, Metabolic Activation: RAT, LIVER, S-9, PHENOBARBITAL AND 5,6-BENZOFLAVONE, Method: PREINCUBATION) “inactive; negative”. Besides, the mutagenic call under setting [8] is “inactive; negative”; the mutagenic call (Test System: AMES SALMONELLA TYPHIMURIUM, Strain/Indicator: TA1537, Metabolic Activation: RAT, LIVER, S-9, PHENOBARBITAL AND 5,6-BENZOFLAVONE, Method: PREINCUBATION) is “inactive; negative”; the mutagenic call (Test System: CHINESE HAMSTER, Strain/Indicator: V-79/6-THIOGUANINE (HGPRT), Metabolic Activation: NONE, Method: STANDARD PLATE) was “active; positive”; the mutagenic call (Test System: E.COLI, Strain/Indicator: WP2 UVRA, Metabolic Activation: NONE, Method: PREINCUBATION) was “inactive; negative”; the mutagenic call (Test System: E.COLI, Strain/Indicator: WP2 UVRA, Metabolic Activation: RAT, LIVER, S-9, PHENOBARBITAL AND 5,6-BENZOFLAVONE, Method: PREINCUBATION) is “inactive; negative”.
